# Patent US12616750B2, “Combination therapy utilizing DNA alkylating agents and ATR inhibitors” (Merck Patent GmbH, priority 2018, dated 2026)
# “And” between values parts separate entries of the source, which are not always exact repeats. Identical values can stand only once. Like-named read-outs stand apart in the source and are kept apart here. Where a SMILES comes first, the peptide text is derived from it. [ ]: non-standard residue; d: D form. The star is where a group is joined. Dolaproine = CO[C@@H]([C@@H]1CCCN1)[C@@H](C)C(=O)O; Dil = CC[C@H](C)[C@H](NC)[C@@H](CC(=O)O)OC; X1 = C[C@@H](N*)[C@@H](O)c1ccccc1; NMeV = CN[C@H](C(=O)O)C(C)C
# Tests used:
# MDA-MB-468 cells = experiment: Dose-matrix combination assay (synergy score, Loewe model); type: cell-based; conditions: combination with DUBA; MDA-MB-468, 6 d; S ± SD; cutoff ±1
# Protocol: (§1) Dose-matrix combination assays were performed as described above, but performed in opague 384-well plates (2k viable cells/well). Compounds were added using Tecan D300e liquid. Protein solutions were supplemented with 0.3% Tween-20 (final) and diluted to 1 μM. All wells were normalized to the maximum amount of DMSO (maximum 0.4%) or Tween-20 added. […] Luminescence values were normalized to luminescence of non-treated cells and dose-response was fitted using Smart Fit. Synergy scores were calculated using LOEWE synergy model.
# (§2) The screening of synergistic drug combinations can be accomplished by performing a dose-matrix assay. Therefore, two drugs are serial diluted and mixed at every dose level, yielding a dose-matrix. The drug combination can be additive if the effects of the combination are identical to the added effects of the single agents. However, the effects of the combination might also be stronger than the activity of the single agents. This scenario is termed synergy, whereas weaker combination effects compared to the single agents are termed antagonism. A dose-matrix assay is depicted schematically in FIG. 2 which illustrates the outcomes of a dose-matrix assay: additivity, antagonism and synergy.
# (§3) The screening was conducted by serial diluting the duocarmycin derivative DUBA (10) and the DDR inhibitors. […] DUBA was combined in a dose-matrix assay with hycanthone. The cell viability was measured after 6 d of treatment using the CellTiter-Glo assay kit. The signals of the cell viability assay were normalized to untreated cells and fitted. […] By subtracting the modeled data from the fitted data, an excess matrix was generated. The excess matrix can be considered as a visualization of the differences between model and actual data which also highlights spots of either high synergy or antagonism. The quantification of the combination effects, however, was performed by calculating synergy scores. […] Besides synergy score, the potency of the drugs in monotherapy was obtained from these experiments. […] The potency was obtained from this dose-response curve.
# (§4) The scattering of S was determined in a sham control experiment to define a cutoff for classifying a combination as truly synergistic or antagonistic. Thus seven different compounds were combined with itself on four different cell lines and the three-σ confidence interval was calculated around the mean of the measurement. […] For the sake of convenience, the cutoff was set to a value of ±1.
# (§5) Synergy scores (S) were obtained from the combination experiments that indicated additivity […] if model and actual response were equal. […] The magnitude of the score determined the extent of the combination effects.
# HCC-1954 cells [1] = experiment: as above; type: cell-based
# Protocol: as §1, §2, §3, §4, §5
# HCC-1954 cells [2] = experiment: Cytotoxicity (cell viability, CellTiter-Glo, 6 d); type: cell-based; conditions: Homo sapiens, HCC1954, HCC-1954
# Protocol: as §1
# After 6 d of treatment, CellTiter-Glo luminescent assay was performed and the luminescence was read on Envision Reader. The results were analyzed using GeneData Screener as described before.
# HCC-1954 cells [3] = experiment: MNED curve-shift assay; type: cell-based; conditions: for MNED (maximum non-efficacious dose): HCC-1954
# Text: Therefore a curve-shift assay system was established. In a first step, a dose-response curve (DRC) is obtained by treating a certain cell line with an inhibitor. The maximum non-efficacious dose (MNED) can be derived from this DRC. MNED is the highest dose, that can be added to a certain cell line without affecting the viability. The activity of the ADC is confirmed in a separate experiment. Finally, a combination experiment can be conducted. Therefore, the ADC and ADC plus inhibitor at MNED are added to the cells. The inhibitor is tested in parallel at MNED as a control. Due to the application of inhibitor at MNED, no reduction in cell viability caused by the inhibitor is expected. Three outcomes are possible: 1) The combination of ADC plus inhibitor is equipotent as the ADC only. […] Such a result would be interpreted as depotentiation. […] In this case, the potency of the ADC is potentiated.
# Potentiation effects are expressed as dose-reduction indices (DRI), which can be calculated by dividing the IC50-value of ADC by the IC50-value of ADC plus inhibitor according to eq. 1
# Curve-shift assays were conducted as follows: The cell number and viability was determined using ViCell™-XR (Beckman Coulter) and seeded in opague 96-well plate (10k viable cells/well). After seeding, the plate was incubated (37° C., 5% C02) in a humid chamber overnight. Compounds were diluted in the appropriate medium, added to the cells and the plate was incubated (37° C., 5% CO2, 6 d) in a humid chamber. After 30 min equilibration at room temperature, CellTiter-Glo reagent (Promega) was added. After the plate was shaken (3 min, 550 rpm, rt) it was incubated (10 min, rt) and luminescence was read on a synergy 4 plate reader (BioTek). Evaluation was performed using GraphPad Prism version 6.05. Therefor luminescence values were normalized to luminescence values of non-treated cells and dose-response was fitted with 4-point logistic fit.
# The determination of dose-reduction indices (DRI) in a maximum non-efficacious dose (MNED) curve-shift assay is a 3-step process as depicted exemplarily in FIG. 13. The cytotoxicity of the ADC is confirmed in a cell viability assay in an initial step. […] In the second step. the MNED of the ATRi was determined. […] In order to obtain a full […] for the combination, the starting concentration of the ADC was lowered compared to the experiment in step 1.
# NCI-N87 xenografts = experiment: Xenograft experiment, therapeutic efficacy; conditions: single agent: αHER2-6 1.0 mg/kg i.v. single dose; ATRi 50 mg/kg per oral once daily 14 d
# Protocol: Female H2d Rag2 mice, 6-8 weeks old, were obtained from Taconic Biosciences, LLC. A xenograft was established by harvesting NCI-N87 cells from cell culture, mixing the cells 1:1 with Matrigel and injecting 2.5×10^6 cells subcutaneously into the flank of the mice. The tumor volume was assessed twice weekly by length measurements in two dimensions using calipers. The volume was calculated following eq. 3 where the length L is the longest tumor length and W is the shortest tumor length.
# After an initial tumor growth phase, mice were randomized and assigned to treatment groups comprising 10 animals. The initial tumor volume amounted to approximately 100 mm^3 when treatment started. Vehicle treated mice obtained a solution of 0.5% Methocel, 0.25% Tween-20 in water. […] Mice were weighted twice weekly to assess the body-weight during the treatment period. The criteria to terminate the study for single animals were skin ulcerations, tumor length exceeding 15 mm or tumor exceeding 10% of the body weight. In addition, body weight loss was a criterium for termination if body weight loss exceeded 20% accompanied with a haggard appearance, body weight loss exceeded 20% on three successive days or if body weight loss exceeded 25% of the adjusted body weight.
# [4] = Xenograft experiment, tolerability (body weight); parameters: species or system H2d Rag2 mice; conditions: mouse, in vivo
# Protocol: The tolerability of the anti-cancer treatment was assessed considering the overall condition of the animal as well as body-weight changes of the mice (FIG. 22).
# MDA-MB-453 cells = experiment: Dose-matrix combination assay (synergy score, Loewe model); type: cell-based
# Protocol: (§6) Dose-matrix combination assays were performed as described above, but performed in opague 384-well plates (2k viable cells/well). Compounds were added using Tecan D300e liquid. Protein solutions were supplemented with 0.3% Tween-20 (final) and diluted to 1 μM. All wells were normalized to the maximum amount of DMSO (maximum 0.4%) or Tween-20 added. Read out of luminescence was performed on Envision 2104 Multilabel Reader (Perkin Elmer) and data were evaluated using Genedata Screener® version 14.0.6-Standard (Genedata AG). Luminescence values were normalized to luminescence of non-treated cells and dose-response was fitted using Smart Fit. Synergy scores were calculated using LOEWE synergy model.
# as §2
# NCI-N87 cells = experiment: as above; type: cell-based
# Protocol: as §6, §2
# [5] = evaluated in vivo; cited from earlier work
# [6] = combination with DUBA, HCC-1954, 6 d, S ± SD, cutoff ±1
# [7] = combination with AZD6738, HCC-1954, 6 d
# [8] = combination with DUBA, cell line not given (screen on HCC-1954 or MDA-MB-468)
# [9] = ATRi alone, mean ± SD, read-out: Cytotoxicity IC50
# [10] = combination with ADC αHER2-2, HCC-1954
smiles,measurement,setting,value
Cc1cnc(NC(=O)Nc2cc(Br)c(C)cc2OC[C@@H]2CNCCO2)cn1 [LY2603618],Synergy score S,MDA-MB-468 cells,4.4+1.7
same,Synergy score S,HCC-1954 cells [1]; [6],4.1+0.3
COCC(=O)NC/C=C/c1ccc2ncnc(Nc3ccc(Oc4ccc(C)nc4)c(C)c3)c2c1 [CP724714],Synergy score S,MDA-MB-468 cells,additive effects
same,Synergy score S,HCC-1954 cells [1]; [6],additive effects
O=c1cc(-c2cccc3c2Sc2ccccc2S3)oc(N2CCOCC2)c1 [KU-55933],Synergy score S,HCC-1954 cells [1]; [6],2.1±1.2
COc1cc2cc(C(=O)N3C[C@@H](CCl)c4c3cc(O)c3ccccc43)[nH]c2c(OC)c1OC [compound 24],IC50,"HCC-1954 cells [2]; duocarmycin variant alone, mean ± SD or mean (individual values), read-out: IC50",24 ± 32 nM
same,Synergy score S,HCC-1954 cells [1]; [7],6.1 ± 1.2
same,Synergy score S,"HCC-1954 cells [1]; combination with AZD6738, HCC-1954, 6 d, listed as CBI-TMI (24)",6.1±1.2
S=C(NCc1ccc2c(c1)OCO2)N1CCN(c2ncnc3c2oc2ccccc23)CC1 [Amuvatinib],Synergy score S,HCC-1954 cells [1]; [8],did not yield a synergy score exceeding the cutoff
C[C@@H]1COCCN1c1cc(-c2ccnn2C)c2ccnc(-c3ccn[nH]3)c2n1 [ATRi 1],MNED (maximum non-efficacious dose),HCC-1954 cells [3],40 nM
same,effect on cell viability at MNED,"HCC-1954 cells [3]; HCC-1954, at 40 nM, inhibitor alone (quality control)",did not reduce cell viability
same,tumor response (tumor volume),NCI-N87 xenografts,transient tumor stasis was induced until day 8
same,Synergy score S,HCC-1954 cells [1],12.5±1.7 and 12.0±0.6
same,tolerability (conclusion),[4],well tolerated
same,Synergy score S,MDA-MB-453 cells,13.3±0.3 and 11.4 ± 1.4
same,Synergy score S,NCI-N87 cells,7.1±0.8 and 6.1±0.4
Cc1nc(S(C)(=O)=O)ccc1-c1cc(N2CCOC[C@H]2C)nc2c(-c3ccn[nH]3)nccc12 [BAY73],MNED (maximum non-efficacious dose),HCC-1954 cells [3],14 nM
same,IC50,HCC-1954 cells [2]; [9],120 ± 30 nM
same,Synergy score S,HCC-1954 cells [1]; [10],14.4±1.1
same,Synergy score S,HCC-1954 cells [1]; [6],12.4±0.8
C=CCn1c(=O)c2cnc(Nc3ccc(N4CCN(C)CC4)cc3)nc2n1-c1cccc(C(C)(C)O)n1 [AZD1775],Synergy score S,MDA-MB-468 cells,0.1±0.4
same,Synergy score S,HCC-1954 cells [1]; [6],0.8±0.1
C[C@@H]1COCCN1c1cc(C2(S(C)(=O)=O)CC2)c2ccnc(-c3ccn[nH]3)c2n1 [BAY286],IC50,HCC-1954 cells [2]; [9],80 ± 20 nM
same,Synergy score S,HCC-1954 cells [1]; [10],10.4±0.2
same,Synergy score S,HCC-1954 cells [1]; [6],9.5±0.8
CC[C@H](C)[C@@H]([C@@H](CC(=O)N1CCC[C@H]1[C@H](OC)[C@@H](C)C(=O)N[C@H](C)[C@@H](O)c1ccccc1)OC)N(C)C(=O)[C@@H](NC(=O)[C@@H](NC)C(C)C)C(C)C [MMAE] (H-[NMeV]V[Dil][Dolaproine]-X1),Synergy score S,HCC-1954 cells [1]; [7],2.2+0.1
O=c1cc(N2CCOCC2)oc2c(-c3cccc4c3sc3ccccc34)cccc12 [NU7441],Synergy score S,HCC-1954 cells [1]; [8],did not yield a synergy score exceeding the cutoff
Nc1nc(OCc2cc(Br)cs2)c2[nH]cnc2n1 [Lomeguatrib],Synergy score S,MDA-MB-468 cells,2.8±2.3
same,Synergy score S,HCC-1954 cells [1]; [6],0.1±0.3
Cc1c(N)nc([C@H](CC(N)=O)NC[C@H](N)C(N)=O)nc1C(=O)N[C@H](C(=O)N[C@H](C)[C@@H](O)[C@H](C)C(=O)NC(C(=O)NCCc1nc(-c2nc(C(=O)NCCCNCCCCN)cs2)cs1)[C@@H](C)O)[C@@H](O[C@@H]1O[C@@H](CO)[C@@H](O)[C@H](O)[C@@H]1O[C@H]1O[C@H](CO)[C@@H](O)[C@H](OC(N)=O)[C@@H]1O)c1cnc[nH]1 (stereo partly shown) [Bleomycin A5],Synergy score S,MDA-MB-468 cells,0.4+1.0
same,Synergy score S,HCC-1954 cells [1]; [6],1.6±1.0
COc1c(O)c2c(c3cc(C(=O)N4CCc5c4c(O)c(OC)c4[nH]c(C(=O)N6CC7CC78C6=CC(=O)c6[nH]cc(C)c68)cc54)[nH]c13)CCN2C(N)=O (stereo not shown) [CC-1065],antitumor activity,[5],moderate antitumor activity
same,toxicity,[5],hepatic toxicity limited its effectiveness
O=C(c1cc(Cc2n[nH]c(=O)c3ccccc23)ccc1F)N1CCN(C(=O)C2CC2)CC1 [Olaparib],Synergy score S,MDA-MB-468 cells,1.1+0.1
same,Synergy score S,HCC-1954 cells [1]; [6],0.6+0.4
Nc1nc(NC2CC2)cc(-c2cccc(Cl)c2Cl)n1 [TH588],Synergy score S,MDA-MB-468 cells,−0.4+0.3
same,Synergy score S,HCC-1954 cells [1]; [6],−0.2±0.3
Nc1ccn([C@@H]2O[C@H](CO)[C@@H](O)C2(F)F)c(=O)n1 [Gemcitabine],Synergy score S,HCC-1954 cells [1]; [7],6.9±0.3
same,Synergy score S,"MDA-MB-453 cells; combination with AZD6738, MDA-MB-453",1.6±1.2
same,Synergy score S,"NCI-N87 cells; combination with AZD6738, NCI-N87",1.1±0.5
N#C/C(C(=O)c1ccc(Cl)cc1Cl)=C1/NC(=O)c2ccc(Cl)cc2N1 [Ciliobrevin D],Synergy score S,MDA-MB-468 cells,0.2±0.5
same,Synergy score S,HCC-1954 cells [1]; [6],1.2+0.6
COc1cc2cc(c1Cl)N(C)C(=O)C[C@H](OC(=O)[C@H](C)N(C)C(=O)CCS)[C@]1(C)O[C@H]1[C@H](C)[C@@H]1C[C@@](O)(NC(=O)O1)[C@H](OC)/C=C/C=C(\C)C2 [DM1],Synergy score S,HCC-1954 cells [1],2.8 ± 0.5
NC(=O)Nc1cc(-c2cccc(F)c2)sc1C(=O)N[C@H]1CCCNC1 [AZD7762],Synergy score S,MDA-MB-468 cells,2.6+0.2
same,Synergy score S,HCC-1954 cells [1]; [6],3.6±0.4
CCN(CC)CCNc1ccc(CO)c2sc3ccccc3c(=O)c12 [Hycanthone],Synergy score S,HCC-1954 cells [1]; [8],0.1
C=CCNC1=C2C[C@@H](C)C[C@H](OC)[C@H](O)[C@@H](C)/C=C(\C)[C@H](OC(N)=O)[C@@H](OC)/C=C\C=C(/C)C(=O)NC(=CC1=O)C2=O [Tanespimycin],Synergy score S,HCC-1954 cells [1],1.4±0.4
C[C@@H]1COCCN1c1cc(C2(S(C)(=O)=O)CC2)nc(-c2cccc3[nH]ccc23)n1 [AZ20],Synergy score S,HCC-1954 cells [1]; [10],5.8±0.4
same,Synergy score S,HCC-1954 cells [1]; [6],5.1±0.5
